The text below walks through data of PubChem BioAssay AID1645868 (Buhrlage Lab, Dana-Farber Cancer Institute and Novartis …, 2021).

This test addresses OTU domain-containing protein 3 (Homo sapiens) (UniProt Q5T2D3). The test can be described thus: Validation of screening hits, potency titration, in vitro enzymatic, OTU domain-containing protein 3 DUB inhibitors (AID 1645868). Particulars: purified OTUD3, ubiquitin-rhodamine cleavage fluorescence, 2 h.

The source made the active and inactive calls.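 How the source made its calls: active means maximal percent inhibition of the deubiquitinase OTUD3 of at least 30% across the tested doses; inactive means the rest.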

OTU domain-containing protein 3 (Homo sapiens), sequence (Q5T2D3 whole entry, looked up, the tested form may be a part): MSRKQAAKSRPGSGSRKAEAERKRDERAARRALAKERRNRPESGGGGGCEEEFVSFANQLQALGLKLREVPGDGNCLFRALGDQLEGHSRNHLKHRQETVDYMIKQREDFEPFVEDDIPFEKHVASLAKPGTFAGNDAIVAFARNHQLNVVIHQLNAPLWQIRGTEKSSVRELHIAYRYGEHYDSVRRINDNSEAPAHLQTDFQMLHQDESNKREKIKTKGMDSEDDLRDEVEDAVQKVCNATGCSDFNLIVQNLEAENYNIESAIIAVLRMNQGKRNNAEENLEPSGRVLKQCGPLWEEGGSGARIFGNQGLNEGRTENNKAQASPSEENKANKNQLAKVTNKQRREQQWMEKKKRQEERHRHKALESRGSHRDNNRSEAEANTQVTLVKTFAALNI

Take `O=C(Cc1ccc(Cl)c(Cl)c1)OCC(=O)c1c[nH]c2ccccc12`: the IC50 is > 50 µM (inactive).

`COc1ccc(NC(=O)c2nnn(-c3ccccc3F)c2C)cc1OC`: the IC50 was > 50 µM (inactive).

For `c1ccc(-c2noc(-c3cc(-c4ccncc4)nc4ccccc34)n2)nc1`, the IC50 is > 50 µM (inactive).

Consider `O=C(CSc1ncnc2c1sc1cccc(F)c12)N1CCCCCC1`, for which the IC50 was > 50 µM (inactive).

Regarding `O=C(Cn1c(=O)n(-c2ccccc2)c(=O)c2ccc(C(=O)NCc3ccc4c(c3)OCO4)cc21)NCCC1=CCCCC1`, the IC50 was 34.4 µM.

Regarding `CCN(CC(=O)Nc1cc(C)on1)c1cccc2ccccc12`, the IC50 was > 50 µM (inactive).

With `O=C(NCc1ccc(Cl)cc1)c1ccc(N2CCCS2(=O)=O)cc1`, the IC50 is > 50 µM (inactive).

As to `COC(=O)c1ccc2c(=O)n(CCCCCC(=O)NCCc3ccc(S(N)(=O)=O)cc3)c(=O)[nH]c2c1`, the IC50 was 12.5 µM.

For `CCCCCC(=O)N1c2ccccc2NC2=C(C(=O)CC(c3ccc(C(C)(C)C)cc3)C2)C1c1ccncc1` (configuration not stated), the IC50 is 19.7 µM.

Consider `COc1cc(O)c2c(=O)c(-c3ccc(O)cc3)coc2c1`, for which the IC50 is > 50 µM (inactive).

As to `O=c1c(OC2O[C@H](CO)[C@H](O)[C@H](O)[C@H]2O)c(-c2ccc(O)cc2)oc2cc(O)cc(O)c12` (some centres not stated), the IC50 is 49.9 µM.

As to `Cn1ccnc1CN1C[C@H]2CCN(c3ncccn3)C[C@H]2C1`, the IC50 is > 50 µM (inactive).

`CO[C@H]1/C=C/OC2(C)Oc3c(C)c(O)c4c(c3C2=O)C2(C=C(NC(=O)/C(C)=C\C=C\[C@H](C)[C@H](O)[C@@H](C)[C@@H](O)[C@@H](C)[C@H](OC(C)=O)C1C)C4=O)OCC(=O)O2` (some centres not stated): the IC50 is > 50 µM (inactive).

For the molecule `O=C(Nc1cccc(-c2noc(C3CCC3)n2)c1)C1CC(=O)N(c2ccccc2)C1` (configuration not stated), the IC50 is 36.9 µM.

As for `Cc1cc(C)c2cc(C(=O)NC3CCN(Cc4ccccc4)CC3)[nH]c2c1`, the IC50 is 32.1 µM.

`O=C(COC(=O)c1ccc2ncsc2c1)Nc1ccccc1F`: the IC50 is > 50 µM (inactive).

Consider `COc1ccc2ncc3c(-c4ccc(C)cc4)nn(-c4ccc(F)cc4)c3c2c1`, for which the IC50 is > 50 µM (inactive).

For the molecule `CCOc1ccc2c(c1)c(=O)c(C(=O)c1ccccc1)cn2CC(=O)Nc1ccccc1`, the IC50 is 19.4 µM.

On to `Fc1ccc(CSc2nnc(-c3ccccn3)n2Cc2ccco2)cc1`, for which the IC50 was > 50 µM (inactive).

Turning to `Cc1nc2c3ccccc3nc(NCc3ccc4c(c3)OCO4)n2n1`, the IC50 was > 50 µM (inactive).

For the molecule `COc1cccc(NC(=O)C2CCC(CNS(=O)(=O)c3ccc4c(c3)C(C)(C)C(=O)N4C)CC2)c1` (configuration not stated), the IC50 is > 50 µM (inactive).

In the case of `O=C(CN1CCCCC1)Nc1nnc(-c2ccc([N+](=O)[O-])cc2)s1`, the IC50 was 18.9 µM.

In the case of `CSc1ccc(CNC(=O)CC2CCN(S(=O)(=O)c3ccc(C)cc3)CC2)cc1`, the IC50 was 30.7 µM.

Regarding `COc1ccccc1/C=C/C(=O)Nc1nc2n(n1)C(c1ccc(Cl)cc1)CC(=O)N2` (configuration not stated), the IC50 was > 50 µM (inactive).

As for `COc1cc(COc2ccc3c(C)c(CC(=O)N4CC[C@@]5(O)CCCC[C@H]5C4)c(=O)oc3c2C)cc(OC)c1OC`, the IC50 was > 50 µM (inactive).

In the case of `CCOC(=O)c1ccc(NC(=O)C[n+]2cc(-c3ccc(Cl)cc3)n3c2CCC3)cc1`, the IC50 was > 50 µM (inactive).

For the molecule `O=C(COc1cccc2ccc(N3CCC(Cc4ccccc4)CC3)nc12)NCc1ccc(F)cc1`, the IC50 is 30.5 µM.

For `NS(=O)(=O)c1cc(C(=O)OCC(=O)NC2CCCc3ccccc32)ccc1Cl` (configuration not stated), the IC50 was 49 µM.

On to `COc1ccc(-c2cc(-c3nnc4n3CCCCC4)n(-c3ccccc3)n2)cc1`, for which the IC50 is > 50 µM (inactive).

On to `CCNc1oc(-c2ccc(S(=O)(=O)N3CCCCC3)cc2)nc1C#N`, for which the IC50 was > 50 µM (inactive).

Regarding `CCC(C)c1ccc(O[C@@H]2O[C@@H]3COC(c4ccccc4)O[C@H]3[C@H](O)[C@H]2NC(C)=O)cc1` (some centres not stated), the IC50 was 23.4 µM.

As for `COc1ccc2nc(NC(=O)C(CC(C)C)NS(=O)(=O)c3ccc4c(c3)CCN4C(C)=O)sc2c1` (configuration not stated), the IC50 is 26.4 µM.

As for `CC1Cc2ccccc2N1C(=O)Cn1c(=O)cc(O)c2ccccc21` (configuration not stated), the IC50 is > 50 µM (inactive).

Regarding `COC1=CC(=O)c2c(O)c3c(c(C)c2C1=O)C[C@@]1(O)[C@H](O[C@H]2CC[C@H](O[C@H]4C[C@@](C)(O)[C@H](OC(=O)c5c(C)ccc(C)c5O)[C@H](C)O4)[C@@H](C)O2)C(=O)C(C(C)=O)=C(O)[C@@]1(O)C3=O`, the IC50 is 2.63 µM.

Take `O=C(COC(=O)c1ccc(Cl)cc1)Nc1ccc2[nH]c(=O)[nH]c2c1`: the IC50 is 12.7 µM.

Consider `O=C(Cn1cc(C(=O)C2CC2)c2ccccc21)NCc1ccc2c(c1)OCO2`, for which the IC50 was 31.2 µM.

Regarding `Cc1cccc(S(=O)(=O)N2CCc3nc4ccccc4n3CC2)c1`, the IC50 was 36.5 µM.

For the molecule `Cc1ccc2nc(-c3cccc(-c4nc5ccc(C)cc5[nH]4)n3)[nH]c2c1`, the IC50 was > 50 µM (inactive).

Regarding `Cc1nn(Cc2ccccc2)c(C)c1C(=O)NC1CCCc2ccccc21` (configuration not stated), the IC50 was > 50 µM (inactive).

As for `Cc1cc(C)cc(-n2cnc3cc(C(=O)NCCC4=CCCCC4)ccc32)c1`, the IC50 is > 50 µM (inactive).

`Cc1nc2cc(C(=O)NCCC3=CCCCC3)ccc2n1-c1cccc(F)c1`: the IC50 is > 50 µM (inactive).

For the molecule `CC1OC2CC(O)C1(O)C1=C2C(=O)c2c(O)c3c(c(O)c2C1=O)[C@H](C)O[C@H]1CC(=O)O[C@@H]31` (some centres not stated), the IC50 is > 50 µM (inactive).

On to `Cc1nnc(-c2nnc(NCc3ccc(Cl)cc3)c3ccccc23)o1`, for which the IC50 is > 50 µM (inactive).

With `Cc1ccc(-c2nc(Cn3nnc(-c4nc(-c5ccccn5)no4)c3C)c(C)o2)cc1`, the IC50 is > 50 µM (inactive).

Consider `CN(Cc1ccccc1)S(=O)(=O)c1ccc(S(=O)(=O)N2CCN(C(=O)c3cccnc3)CC2)cc1`, for which the IC50 was > 50 µM (inactive).

Take `COc1ccc(-c2cc(-c3ccc(O)cc3)nc(N)c2C#N)cc1OC`: the IC50 is > 50 µM (inactive).

For `COc1ccccc1NC(=O)c1cc(-c2ccccn2)nc2ccccc12`, the IC50 was 39.3 µM.

As for `CCN(C(=O)c1cc2c(s1)-c1ccccc1OC2)c1ccccc1F`, the IC50 is > 50 µM (inactive).

In the case of `Clc1cccc(N2CCN(c3ncnc4nc[nH]c34)CC2)c1`, the IC50 is > 50 µM (inactive).

Take `COc1ccc(NC(=O)C2C3C=CC4(O3)C2C(=O)N(CCc2ccccc2)C4C(=O)NC2CCCCC2)cc1` (configuration not stated): the IC50 is 26.6 µM.

As to `Cc1noc(-c2cc(=O)n(CC(=O)NCc3ccccc3)c3ccccc23)n1`, the IC50 is > 50 µM (inactive).

For `O=C(Cn1c(=O)n(Cc2ccc3c(c2)OCO3)c(=O)c2ncccc21)c1ccccc1`, the IC50 is > 50 µM (inactive).

For the molecule `Cc1cc(NC(=O)c2[nH]nc3c2CCc2ccccc2-3)no1`, the IC50 was 37.9 µM.

`COc1ccc2cc1Oc1cc(ccc1OC)C(O)C13SSC4(C(=O)N1C)C(O)C1=COC=CC(OC2=O)C1N4C3=O` (configuration not stated): the IC50 was > 50 µM (inactive).

Take `CCCn1c(=O)c(-c2ccc(C(=O)NCc3ccc(OC)cc3)cc2)nc2cccnc21`: the IC50 is 6.42 µM.

In the case of `CCN(c1ccccc1)S(=O)(=O)c1ccc(C(=O)Nc2nc3ccc(F)cc3s2)cc1`, the IC50 was > 50 µM (inactive).

Turning to `Cc1cc2c(cc1C)NC(CC(=O)Nc1ccc(O)cc1)C(=O)N2` (configuration not stated), the concentration for half-maximal inhibition (IC50) is 30.8 µM.

In general, IC50 refers to the concentration that gives 50% inhibition.
